For one experiment, the target named is D(2) dopamine receptor (Rattus norvegicus, UniProt P61169). The experiment is described as follows: Binding affinity against dopamine receptor D2 on rat striatum using [3H]spiperone as radioligand. In kind it is tissue-based.
For experiment [1], the target named is T1, Adrenergic receptor alpha-1 (Rattus norvegicus, UniProt P15823+P23944+P43140).
T1 sequence (P15823 whole entry): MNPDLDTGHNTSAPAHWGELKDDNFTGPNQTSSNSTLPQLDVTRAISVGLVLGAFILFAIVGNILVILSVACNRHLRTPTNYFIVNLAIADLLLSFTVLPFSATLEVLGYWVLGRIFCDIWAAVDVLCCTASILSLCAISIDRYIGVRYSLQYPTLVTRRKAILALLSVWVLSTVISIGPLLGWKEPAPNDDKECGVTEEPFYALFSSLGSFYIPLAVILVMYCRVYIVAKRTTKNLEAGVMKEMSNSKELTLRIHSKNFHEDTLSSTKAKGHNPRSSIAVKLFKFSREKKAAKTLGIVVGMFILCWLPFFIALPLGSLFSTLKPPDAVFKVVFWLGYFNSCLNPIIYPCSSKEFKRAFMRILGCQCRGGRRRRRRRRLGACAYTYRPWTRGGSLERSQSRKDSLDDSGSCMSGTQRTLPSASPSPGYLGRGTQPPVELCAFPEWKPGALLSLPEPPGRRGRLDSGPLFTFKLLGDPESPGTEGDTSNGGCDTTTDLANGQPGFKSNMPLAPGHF
T1 sequence (P23944 whole entry): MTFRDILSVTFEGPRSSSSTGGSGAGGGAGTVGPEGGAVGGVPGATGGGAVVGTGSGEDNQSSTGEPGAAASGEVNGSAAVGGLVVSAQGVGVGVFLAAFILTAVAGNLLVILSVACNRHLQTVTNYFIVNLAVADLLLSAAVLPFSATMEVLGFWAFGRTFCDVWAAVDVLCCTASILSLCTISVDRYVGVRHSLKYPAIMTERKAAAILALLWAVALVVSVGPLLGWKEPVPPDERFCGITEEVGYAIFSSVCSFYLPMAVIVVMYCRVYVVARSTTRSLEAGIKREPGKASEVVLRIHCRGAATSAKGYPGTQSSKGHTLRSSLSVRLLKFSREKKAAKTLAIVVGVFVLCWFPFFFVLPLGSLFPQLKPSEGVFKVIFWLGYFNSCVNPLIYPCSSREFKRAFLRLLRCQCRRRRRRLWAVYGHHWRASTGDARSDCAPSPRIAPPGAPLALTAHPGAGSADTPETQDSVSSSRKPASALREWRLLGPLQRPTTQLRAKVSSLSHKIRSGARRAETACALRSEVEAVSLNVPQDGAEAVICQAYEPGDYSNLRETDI
T1 sequence (P43140 whole entry): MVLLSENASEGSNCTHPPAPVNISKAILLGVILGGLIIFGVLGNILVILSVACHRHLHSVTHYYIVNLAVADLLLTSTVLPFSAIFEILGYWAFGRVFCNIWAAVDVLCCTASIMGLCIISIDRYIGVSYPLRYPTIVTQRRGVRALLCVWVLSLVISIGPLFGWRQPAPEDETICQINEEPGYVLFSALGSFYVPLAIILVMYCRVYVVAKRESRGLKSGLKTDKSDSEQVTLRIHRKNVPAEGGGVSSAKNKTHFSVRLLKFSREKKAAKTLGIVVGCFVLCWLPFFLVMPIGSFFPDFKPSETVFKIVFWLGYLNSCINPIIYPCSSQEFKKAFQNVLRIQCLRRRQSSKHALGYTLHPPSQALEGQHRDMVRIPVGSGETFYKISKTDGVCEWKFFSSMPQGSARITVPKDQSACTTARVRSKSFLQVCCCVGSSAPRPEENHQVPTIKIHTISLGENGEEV
As to the kind of experiment: Binding affinity against alpha-1 adrenergic receptor on rat cortex using [3H]-prazosin as radioligand. In kind it is tissue-based, Brain.

Experiment [2] can be described thus: Binding affinity (Ki) ratio of D2 receptor of rat striatum and 5-HT1A receptor of rat hippocampus. In kind it is tissue-based.
The target in experiment [3] is Serotonin 1a (5-HT1a) receptor/Adrenergic receptor alpha-1 (Rattus norvegicus) (UniProt P15823+P23944+P43140+P19327). The experiment is described as follows: Selectivity for 5-HT1A receptor of rat hippocampus and alpha-1 adrenergic receptor of rat cortex. In kind it is tissue-based.
The target of experiment [4] is T2, 5-hydroxytryptamine receptor 1A (Rattus norvegicus, UniProt P19327).
T2 sequence (P19327 whole entry): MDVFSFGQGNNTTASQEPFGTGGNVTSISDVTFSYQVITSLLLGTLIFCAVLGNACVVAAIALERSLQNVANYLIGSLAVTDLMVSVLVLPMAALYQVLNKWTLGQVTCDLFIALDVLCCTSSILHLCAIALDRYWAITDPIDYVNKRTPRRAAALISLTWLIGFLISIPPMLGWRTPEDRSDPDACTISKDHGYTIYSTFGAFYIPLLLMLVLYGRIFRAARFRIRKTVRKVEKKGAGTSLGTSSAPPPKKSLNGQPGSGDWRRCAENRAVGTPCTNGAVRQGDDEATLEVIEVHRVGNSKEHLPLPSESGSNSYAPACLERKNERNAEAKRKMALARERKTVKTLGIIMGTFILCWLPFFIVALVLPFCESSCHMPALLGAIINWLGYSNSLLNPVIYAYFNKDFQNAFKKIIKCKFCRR
As to the kind of experiment: Binding affinity against 5-hydroxytryptamine 1A receptor on rat hippocampus using [3H]8-OH-DPAT as radioligand. In kind it is tissue-based.

Experiment [5] has as its target T3, 5-hydroxytryptamine receptor 1A (Homo sapiens) (UniProt P08908).
T3 sequence (whole entry): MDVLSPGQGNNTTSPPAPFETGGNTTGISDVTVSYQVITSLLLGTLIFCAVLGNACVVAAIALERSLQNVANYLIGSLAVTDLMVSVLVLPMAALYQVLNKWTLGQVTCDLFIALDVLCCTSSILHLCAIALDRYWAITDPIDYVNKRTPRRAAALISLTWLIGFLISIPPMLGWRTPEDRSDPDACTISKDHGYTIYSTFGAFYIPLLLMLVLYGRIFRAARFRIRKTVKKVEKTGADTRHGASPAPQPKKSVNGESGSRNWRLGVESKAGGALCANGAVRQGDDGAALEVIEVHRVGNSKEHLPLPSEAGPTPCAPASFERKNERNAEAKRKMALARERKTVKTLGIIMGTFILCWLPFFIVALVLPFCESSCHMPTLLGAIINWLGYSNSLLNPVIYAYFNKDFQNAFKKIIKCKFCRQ
As to the kind of experiment: Antagonist activity against CHO cells expressing the human 5-hydroxytryptamine 1A receptor in a forskolin stimulated adenylate cyclase (FSC) assay. In kind it is functional, cell-based.

D(2) dopamine receptor, sequence (P61169 whole entry): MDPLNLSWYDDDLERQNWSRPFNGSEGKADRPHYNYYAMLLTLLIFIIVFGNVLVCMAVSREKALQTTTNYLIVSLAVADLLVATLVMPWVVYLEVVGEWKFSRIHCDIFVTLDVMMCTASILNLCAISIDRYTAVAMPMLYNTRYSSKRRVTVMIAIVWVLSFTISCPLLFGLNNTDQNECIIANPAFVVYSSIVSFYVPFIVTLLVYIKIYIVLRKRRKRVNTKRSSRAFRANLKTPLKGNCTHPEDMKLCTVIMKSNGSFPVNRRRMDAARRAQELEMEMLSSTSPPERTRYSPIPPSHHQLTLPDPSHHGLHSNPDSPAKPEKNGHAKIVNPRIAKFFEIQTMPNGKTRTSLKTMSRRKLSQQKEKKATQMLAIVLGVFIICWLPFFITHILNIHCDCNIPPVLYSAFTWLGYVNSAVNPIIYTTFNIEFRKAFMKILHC

Take `COc1cccc(CCCCNCCOc2cc(F)cc3c2OCCC3=O)c1`: the inhibition constant Ki on D(2) dopamine receptor is 111 nM; in experiment [1], 249 nM; in experiment [4], 43.4 nM. Moreover, the Ratio in experiment [2] amounted to 2.6. The same molecule came in with a Selectivity in experiment [3] of 5.7. In addition, the FSC recovery in experiment [5] came out at 3%.

On to `COc1ccc(CCCCNCCOc2cc(F)cc3c2OCC/C3=N/O)cc1`, for which the Ki at D(2) dopamine receptor was determined as 11.7 nM; in experiment [1], 207 nM; in experiment [4], 27.7 nM. For the same molecule, the Ratio in experiment [2] was 0.42. The molecule further returned a Selectivity in experiment [3] of 7.5. This molecule also gave an FSC recovery in experiment [5] of 83%.

Take `COc1ccc(CCNCCOc2cc(F)cc3c2OC(C)CC3)cc1` (stereo not drawn): the Ki amounted to 8.13 nM on D(2) dopamine receptor, 2.73 nM in experiment [1] and 0.188 nM in experiment [4]. Besides, the Ratio in experiment [2] is 43. The Selectivity in experiment [3] came to 15. The molecule further came in with an FSC recovery in experiment [5] of 12%.

For the molecule `COc1ccc(CCCCNCCOc2cc(F)cc3c2OCCC3=O)c(C)c1C`, the Ki in experiment [1] came to 152 nM; in experiment [4], 77 nM. This molecule also gave a Selectivity in experiment [3] of 2. The FSC recovery in experiment [5] worked out at 17%.

For `CCCOc1ccc(CCCCNCCOc2cc(F)cc3c2OCCC3=O)cc1`, the Ki in experiment [1] is 856 nM; in experiment [4] it was 48.8 nM. The same molecule came in with a Selectivity in experiment [3] of 18. Besides, the FSC recovery in experiment [5] amounted to 33%.

Consider `CSc1ccc(CCCCNCCOc2cc(F)cc3c2OCCC3=O)cc1`, for which the inhibition constant Ki on D(2) dopamine receptor is 38.8 nM; in experiment [1] it was 315 nM; in experiment [4], 18.4 nM. Moreover, the Ratio in experiment [2] is 2.1. Besides, the Selectivity in experiment [3] is 17. In addition, the FSC recovery in experiment [5] was determined as 49%.

On to `COc1ccc(CCCCNCCOc2cc(F)cc3c2OC(C)CC3)cc1` (stereo not drawn), for which the Ki on D(2) dopamine receptor is 0.312 nM; in experiment [1], 4.07 nM; in experiment [4] it was 0.27 nM. The Ratio in experiment [2] stood at 1.2. In experiment [3], this molecule registered a Selectivity of 15. The molecule also came in with an FSC recovery in experiment [5] of 53%.

For `O=C1CCOc2c(OCCNCCCCc3ccc([N+](=O)[O-])cc3)cc(F)cc21`, the inhibition constant (Ki) turned out to be 258 nM in experiment [1] and 19.3 nM in experiment [4]. The molecule further gave a Selectivity in experiment [3] of 13. Also, the FSC recovery in experiment [5] was 3%.

On to `COc1ccc(CCCCNCCOc2cc(F)cc3c2OCCC3O)cc1` (single isomer, unassigned; (+)) [listing 1 of 2 here], for which the Ki came out at 0.482 nM on D(2) dopamine receptor, 73.3 nM in experiment [1] and 2.1 nM in experiment [4].

Consider `COc1ccc(CCCCNCCOc2cc(F)cc3c2OC(C)(C)CC3)cc1`, for which the Ki at D(2) dopamine receptor came out at 0.149 nM; in experiment [1], 3.57 nM; in experiment [4] it was 0.435 nM. Moreover, the Ratio in experiment [2] is 0.34. In experiment [3], this molecule returned a Selectivity of 8.2. Besides, the FSC recovery in experiment [5] is 44%.

`N#Cc1ccc(CCCCNCCOc2cc(F)cc3c2OCCC3=O)cc1`: the Ki was 70.4 nM on D(2) dopamine receptor, 355 nM in experiment [1] and 11 nM in experiment [4]. Also, in experiment [2], the Ratio worked out at 6.4. The Selectivity in experiment [3] worked out at 32. For the same molecule, the FSC recovery in experiment [5] was 17%.

`COc1ccc(CCCCNCCOc2cc(F)cc3c2OCCC3O)cc1` (stereo in doubt; 34): the Ratio in experiment [2] was found to be 1. The molecule also displayed a Selectivity in experiment [3] of 15. In experiment [5], this molecule returned an FSC recovery of 108%.

In the case of `COc1ccc(CCCCNCCOc2cc(F)cc3c2OCCC3O)cc1` (stereo in doubt; (-)-34) [listing 1 of 2 here], the results for the inhibition constant Ki (at D(2) dopamine receptor; in experiment [1]; in experiment [4]) were 4.11 nM, 5.86 nM and 0.31 nM, respectively.

On to `COc1ccc(CCCCNCCOc2cc(F)cc3c2OCCC3O)cc1` (stereo in doubt; (-)-34) [listing 2 of 2 here], for which, in experiment [2], the Ratio came out at 13. The molecule also came in with a Selectivity in experiment [3] of 19. In experiment [5], this molecule yielded an FSC recovery of 111%.

Consider `COc1ccc(CCCCNCCOc2cc(F)cc3c2OCCC3O)cc1` (single isomer, unassigned; (+)) [listing 2 of 2 here], for which, in experiment [2], the Ratio was 0.23. Further, the Selectivity in experiment [3] turned out to be 35. Also, the FSC recovery in experiment [5] is 109%.

On to `COc1ccc(CCCCN(C)CCOc2cc(F)cc3c2OCCC3=O)cc1`, for which the Ki in experiment [1] came to 1350 nM; in experiment [4], 52.7 nM. The Selectivity in experiment [3] is 26. The FSC recovery in experiment [5] came to 10%.

For the origin of these results see ChEMBL document CHEMBL1131034, “Synthesis and pharmacological characterization of novel 6-fluorochroman derivatives as potential 5-HT1A receptor antagonists” (J Med Chem, 1998).
